Measured values: PubChem BioAssay (NCI)
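Step 1: Grow cells in 96-well plates. Step 2: Expose to compound for 48 hours at 5 concentrations. Step 3: Interpolate endpoints linearly; if unreached, use highest concentration. TGI: total growth inhibition.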

Tests used:
Experiment in all cases: NCI anticancer screen, dose series, 48 h
U251 CNS = test system: U251 CNS
XF 498 CNS = test system: XF 498 CNS
CAKI-1 renal = test system: CAKI-1 renal
786-0 renal = test system: 786-0 renal
CCRF-CEM leukemia = test system: CCRF-CEM leukemia
UACC-62 melanoma = test system: UACC-62 melanoma
K-562 leukemia = test system: K-562 leukemia
SN12C renal = test system: SN12C renal
SF-539 CNS = test system: SF-539 CNS
SK-MEL-5 melanoma = test system: SK-MEL-5 melanoma
NCI-H460 lung = test system: NCI-H460 lung
COLO 205 colon = test system: COLO 205 colon
TK-10 renal = test system: TK-10 renal
SNB-78 CNS = test system: SNB-78 CNS
SF-268 CNS = test system: SF-268 CNS
SK-MEL-28 melanoma = test system: SK-MEL-28 melanoma
IGROV1 ovarian = test system: IGROV1 ovarian
HL-60(TB) leukemia = test system: HL-60(TB) leukemia
HOP-62 NSCLC = test system: HOP-62 NSCLC
HOP-92 NSCLC = test system: HOP-92 NSCLC
OVCAR-8 ovarian = test system: OVCAR-8 ovarian
MOLT-4 leukemia = test system: MOLT-4 leukemia
ACHN renal = test system: ACHN renal
DMS 114 small cell lung = test system: DMS 114 small cell lung
DLD-1 colon = test system: DLD-1 colon
NCI-H522 lung = test system: NCI-H522 lung
LOX IMVI melanoma = test system: LOX IMVI melanoma
M19-MEL melanoma = test system: M19-MEL melanoma
HCC-2998 colon = test system: HCC-2998 colon
SW-620 colon = test system: SW-620 colon
OVCAR-5 ovarian = test system: OVCAR-5 ovarian
SR leukemia = test system: SR leukemia
RXF 393 renal = test system: RXF 393 renal
OVCAR-3 ovarian = test system: OVCAR-3 ovarian
OVCAR-4 ovarian = test system: OVCAR-4 ovarian
KM12 colon = test system: KM12 colon
NCI-H23 lung = test system: NCI-H23 lung
HT29 colon = test system: HT29 colon
UO-31 renal = test system: UO-31 renal
SF-295 CNS = test system: SF-295 CNS
HOP-18 NSCLC = test system: HOP-18 NSCLC
M14 melanoma = test system: M14 melanoma
SNB-19 CNS = test system: SNB-19 CNS
DMS 273 small cell lung = test system: DMS 273 small cell lung
A549 NSCLC = test system: A549 NSCLC
LXFL 529 NSCLC = test system: LXFL 529 NSCLC
SNB-75 CNS = test system: SNB-75 CNS
MALME-3M melanoma = test system: MALME-3M melanoma
HCT-116 colon = test system: HCT-116 colon
UACC-257 melanoma = test system: UACC-257 melanoma
A498 renal = test system: A498 renal
RXF-631 renal = test system: RXF-631 renal
KM20L2 colon = test system: KM20L2 colon
SK-MEL-2 melanoma = test system: SK-MEL-2 melanoma
SK-OV-3 ovarian = test system: SK-OV-3 ovarian
RPMI-8226 leukemia = test system: RPMI-8226 leukemia
HCT-15 colon = test system: HCT-15 colon
EKVX NSCLC = test system: EKVX NSCLC
NCI-H226 lung = test system: NCI-H226 lung

Compound: CC(=O)c1c2c(cc3c1CC1(C3)Cc3cc4c(c(C(=O)O)c3C1)CCC4)CCC2 (stereo unspecified)
- TGI (U251 CNS): 70.6 µM
- TGI (XF 498 CNS): > 100 µM
- TGI (CAKI-1 renal): > 100 µM
- TGI (786-0 renal): > 100 µM
- TGI (CCRF-CEM leukemia): 69.7 µM
- TGI (UACC-62 melanoma): 78.7 µM
- TGI (K-562 leukemia): 97.8 µM
- TGI (SN12C renal): > 100 µM
- TGI (SF-539 CNS): 59.6 µM
- TGI (SK-MEL-5 melanoma): > 100 µM
- TGI (NCI-H460 lung): > 100 µM
- TGI (COLO 205 colon): 68.1 µM
- TGI (TK-10 renal): > 100 µM
- TGI (SNB-78 CNS): > 100 µM
- TGI (SF-268 CNS): > 100 µM
- TGI (SK-MEL-28 melanoma): > 100 µM
- TGI (IGROV1 ovarian): > 100 µM
- TGI (HL-60(TB) leukemia): 35.6 µM
- TGI (HOP-62 NSCLC): > 100 µM
- TGI (HOP-92 NSCLC): 81.2 µM
- TGI (OVCAR-8 ovarian): > 100 µM
- TGI (MOLT-4 leukemia): 71.3 µM
- TGI (ACHN renal): > 100 µM
- TGI (DMS 114 small cell lung): > 100 µM
- TGI (DLD-1 colon): > 100 µM
- TGI (NCI-H522 lung): 42.3 µM
- TGI (LOX IMVI melanoma): > 100 µM
- TGI (M19-MEL melanoma): > 100 µM
- TGI (HCC-2998 colon): > 100 µM
- TGI (SW-620 colon): > 100 µM
- TGI (OVCAR-5 ovarian): > 100 µM
- TGI (SR leukemia): 80.2 µM
- TGI (RXF 393 renal): > 100 µM
- TGI (OVCAR-3 ovarian): 47.2 µM
- TGI (OVCAR-4 ovarian): > 100 µM
- TGI (KM12 colon): > 100 µM
- TGI (NCI-H23 lung): 66.8 µM
- TGI (HT29 colon): > 100 µM
- TGI (UO-31 renal): 72.7 µM
- TGI (SF-295 CNS): > 100 µM
- TGI (HOP-18 NSCLC): > 100 µM
- TGI (M14 melanoma): > 100 µM
- TGI (SNB-19 CNS): > 100 µM
- TGI (DMS 273 small cell lung): > 100 µM
- TGI (A549 NSCLC): > 100 µM
- TGI (LXFL 529 NSCLC): > 100 µM
- TGI (SNB-75 CNS): > 100 µM
- TGI (MALME-3M melanoma): > 100 µM
- TGI (HCT-116 colon): 67.8 µM
- TGI (UACC-257 melanoma): > 100 µM

Compound: [Cl-].[Fe+2].c1ccc(-c2ccnc3c2ccc2c(-c4ccccc4)ccnc23)cc1.c1ccc(-c2ccnc3c2ccc2c(-c4ccccc4)ccnc23)cc1.c1ccc(-c2ccnc3c2ccc2c(-c4ccccc4)ccnc23)cc1
- TGI (K-562 leukemia): 0.139 µM
- TGI (A498 renal): 0.39 µM
- TGI (SNB-78 CNS): > 100 µM
- TGI (RXF-631 renal): > 100 µM

Compound: CN1CN(C(=O)N2CN(C)C(=O)N(C)C2)CN(C)C1=O
- TGI (XF 498 CNS): > 100 µM
- TGI (CAKI-1 renal): > 100 µM
- TGI (CCRF-CEM leukemia): > 100 µM
- TGI (UACC-62 melanoma): > 100 µM
- TGI (K-562 leukemia): > 100 µM
- TGI (KM20L2 colon): > 100 µM
- TGI (SK-MEL-2 melanoma): > 100 µM
- TGI (A498 renal): > 100 µM
- TGI (SN12C renal): > 100 µM
- TGI (SF-539 CNS): > 100 µM
- TGI (COLO 205 colon): > 100 µM
- TGI (SNB-78 CNS): > 100 µM
- TGI (SF-268 CNS): > 100 µM
- TGI (SK-MEL-28 melanoma): > 100 µM
- TGI (IGROV1 ovarian): > 100 µM
- TGI (HL-60(TB) leukemia): > 100 µM
- TGI (HOP-62 NSCLC): > 100 µM
- TGI (OVCAR-8 ovarian): > 100 µM
- TGI (MOLT-4 leukemia): > 100 µM
- TGI (ACHN renal): > 100 µM
- TGI (DMS 114 small cell lung): > 100 µM
- TGI (DLD-1 colon): > 100 µM
- TGI (NCI-H522 lung): > 100 µM
- TGI (LOX IMVI melanoma): > 100 µM
- TGI (M19-MEL melanoma): > 100 µM
- TGI (HCC-2998 colon): > 100 µM
- TGI (SW-620 colon): > 100 µM
- TGI (OVCAR-5 ovarian): > 100 µM
- TGI (OVCAR-3 ovarian): > 100 µM
- TGI (KM12 colon): > 100 µM
- TGI (HT29 colon): > 100 µM
- TGI (UO-31 renal): > 100 µM
- TGI (SF-295 CNS): > 100 µM
- TGI (SK-OV-3 ovarian): > 100 µM
- TGI (HOP-18 NSCLC): > 100 µM
- TGI (RPMI-8226 leukemia): > 100 µM
- TGI (M14 melanoma): > 100 µM
- TGI (SNB-19 CNS): > 100 µM
- TGI (HCT-15 colon): > 100 µM
- TGI (A549 NSCLC): > 100 µM
- TGI (LXFL 529 NSCLC): > 100 µM
- TGI (SNB-75 CNS): > 100 µM
- TGI (EKVX NSCLC): > 100 µM
- TGI (MALME-3M melanoma): > 100 µM
- TGI (NCI-H226 lung): > 100 µM
- TGI (HCT-116 colon): > 100 µM
- TGI (UACC-257 melanoma): > 100 µM
